Measurements from patent US20110190267A1, “PRODRUGS OF OPIOIDS AND USES THEREOF” (priority 2010, published 2011).
Where “and” joins values, the source holds several entries; their conditions need not be identical. Equal values may be shown once. Where a name gives a salt, the structure may show the parent alone. Read-outs that look alike come from different tables or passages of the source. Marks after values point to notes of the source that are not given here.

Tests used:
[1] = type: physicochemical
Method: Additionally the potential activation at blood pH of 7.4 was investigated over a similar period. The concentrations of the prodrug & drug were assayed by HPLC.

[2] = type: in vitro ADME
in vivo [3] = conditions: dog, read-out: Dog Oral Bioavailability (%)
Method: (§1) Blood samples were taken at various times after administration and submitted to analysis for the parent drug and prodrug using a validated LC-MS-MS assay. Pharmacokinetic parameters derived from the plasma analytical data were determined using Win Nonlin.

in vivo [4] = conditions: monkey, read-out: Monkey Oral Bioavailability (%)
Method: as §1

[5] = Pharmacokinetics of R,R tapentadol or R,R tapentadol PABA carbamate, monkeys (Example 40); type: in vivo, cynomolgus monkeys; conditions: R,R tapentadol in plasma after oral R,R tapentadol, 3 mg free base equivalents/kg
Method: (§2) Blood samples were taken at various times after administration, and submitted to analysis for the parent drug and prodrug using a validated LC-MS-MS assay. Pharmacokinetic parameters derived from the plasma analytical data were determined using Win Nonlin.

[6] = Pharmacokinetics of R,R tapentadol or R,R tapentadol PABA carbamate, dogs (Example 41); type: in vivo, Beagle dogs; conditions: for AUC / Cmax / T>50%Cmax / Tmax / t½: RR-tapentadol in plasma after oral RR-tapentadol, 1 mg free base equivalents/kg, female beagle dogs
Method: as §2

[7] = Pharmacokinetics of butorphanol or butorphanol PABA carbamate, monkeys (Example 43); type: in vivo, cynomolgus monkeys
Method: as §2

[8] = Pharmacokinetics of butorphanol or butorphanol PABA carbamate, dogs (Example 44); type: in vivo, beagle dogs; conditions: butorphanol in plasma after oral butorphanol, 0.5 mg butorphanol free base/kg, dog; for half-life: read-out: t½ (converted)
Method: Test substances, butorphanol or butorphanol_PABA carbamate were orally administered to two male beagle dogs at 0.5 mg butorphanol free base equivalents/kg in a parallel group study design.

[9] = Balikova et al. (2001); cited from earlier work
in vivo [10] = conditions: male, rat, plasma, po, 10 mg naloxone free base equivalents/kg, naloxone in plasma after oral naloxone, 10 mg free base equivalents/kg, male rats; for half-life: t½
Method: Blood samples were taken at various times after administration and submitted to analysis for the parent drug and pro-drug using a validated LC-MS-MS assay. Pharmacokinetic parameters derived from the plasma analytical data were determined using Win Nonlin.

[11] = Pharmacokinetics of racemic tapentadol or tapentadol PABA carbamate, monkeys (Example 39)
[12] = simulated intestinal fluid pH 6.8, 37 C
[13] = naloxone in plasma after oral naloxone, 10 mg free base equivalents/kg, male rats, single animal

In the case of `CCC1(c2cccc(OC(=O)NC(C(=O)O)C(C)C)c2)CCCCN(C)C1` [Meptazinol (R)-valine carbamate], the “Chemical Stability - pH 7.4, 37° C. % prodrug remaining at 2 h” value ([1]; pH 7.4, 37° C, 2 h) is reported as 96% and the “Biological/chemical stability - SIF - pH 6.8, 37 C. % prodrug remaining at 2 h” value [2, 12] is reported as 74%.
In the case of `CCC1(c2cccc(OC(=O)NC(C(=O)O)C(C)C)c2)CCCCN(C)C1` [Meptazinol (S) valine carbamate], the “Chemical Stability, % prodrug remaining at 2 h, pH 10.0” value ([1]; pH 10.0, 37° C, 2 h) is reported as 66% pH 10.0 and the “Biological/chemical stability - SIF - pH 6.8, 37 C. % prodrug remaining at 2 h” value [2, 12] is reported as 99%.
For `CCC1(c2cccc(O)c2)CCCCN(C)C1` (stereo not shown) [Meptazinol HCl (oral), Meptazinol HCl], the bioavailability (in vivo [3]) was 6 ± 2.1% and the bioavailability (in vivo [4]) was 1.8 ± 0.2%.
For `CCC(C)C(NC(=O)Oc1cccc(C2(CC)CCCCN(C)C2)c1)C(=O)O` (stereo not shown) [Meptazinol isoleucine carbamate], the “Chemical Stability, % prodrug remaining at 2 h, pH 10.0” value ([1]; pH 10.0, 37° C, 2 h) was 73% pH 10.0 and the “Biological/chemical stability - SIF - pH 6.8, 37 C. % prodrug remaining at 2 h” value [2, 12] was 99%.
With `CCC1(c2cccc(OC(=O)NC(CCSC)C(=O)O)c2)CCCCN(C)C1` (stereo not shown) [Meptazinol methionine carbamate] the “Chemical Stability, % prodrug remaining at 2 h, pH 10.0” value ([1]; buffer, 2 h, pH 10) was 60% pH 10.0 and the “Biological/chemical stability - SIF - pH 6.8, 37 C. % prodrug remaining at 2 h” value ([2]; simulated gi fluid, pH 6.8) was 100%.
For `CCC1(c2cccc(OC(=O)N[C@H](C(=O)O)C(C)C)c2)CCCCN(C)C1` (stereo partly shown) [Meptazinol-valine carbamate], the “Chemical stability at pH 7.4” value ([1]; pH 7.4) was roughly 100%.
In the case of `CC[C@@H](c1cccc(O)c1)[C@@H](C)CN(C)C` [R,R tapentadol], the AUC ([5]; Mean) is reported as 7.6 ng·h/mL, the Cmax ([5]; Mean) is reported as 2.2 ng/mL and the “T>50%Cmax” value ([5]; Mean) is reported as 2.8 h. For the same compound, the Tmax ([5]; Mean) was 1.1 h, the t½ ([5]; Mean) was 1.6 h and the AUC ([5]; single animal) was 10 ng·h/mL and 8.6 ng·h/mL and 7.7 ng·h/mL and 4.0 ng·h/mL. The Cmax ([5]; single animal) was 2.9 ng/mL and 2.6 ng/mL and 2.1 ng/mL and 1.1 ng/mL, the “T>50%Cmax” value ([5]; single animal) was 2.8 h (2×) and 2.7 h and 2.9 h and the Tmax ([5]; single animal) was 0.5 h and 1.0 h (2×) and 2.0 h. For the same compound, the t½ ([5]; single animal) was 1.5 h (2×) and 1.7 h and 1.6 h, the AUC ([6]; Mean) was 4.16 ng·h/mL and the Cmax ([6]; Mean) was 3.21 ng/mL. The “T>50%Cmax” value ([6]; Mean) was 0.7 h, the Tmax ([6]; Mean) was 0.44 h and the t½ ([6]; Mean) was 0.6 h. For the same compound, the AUC ([6]; single animal) was 1.74 ng·h/mL and 8.35 ng·h/mL and 2.38 ng·h/mL, the Cmax ([6]; single animal) was 1.25 ng/mL and 8.48 ng/mL and 0.39 ng/mL and 2.71 ng/mL and the “T>50%Cmax” value ([6]; single animal) was 1.0 h and 0.6 h (2×). The Tmax ([6]; single animal) was 0.50 h (3×) and 0.25 h, the t½ ([6]; single animal) was 0.7 h and 0.6 h and 0.5 h and the “T50% Cmax of R,R tapentadol” value ([6]; dogs, oral 1 mg R,R tapentadol free base equivalents/kg) was 0.7 h.
With `Oc1ccc2c(c1)[C@@]13CCCC[C@@]1(O)[C@@H](C2)N(CC1CCC1)CC3` [butorphanol] the Cmax ([7]; butorphanol in plasma after oral butorphanol, 1.0 mg butorphanol free base/kg, monkey, single animal, below the LLOQ of 0.1 ng/mL) was <0.1* ng/mL, the AUC ([7]; male, cynomolgus monkey, 1 mg butorphanol free base equivalents/kg, butorphanol in plasma after oral butorphanol, 1.0 mg butorphanol free base/kg, Average, estimate of maximal systemic exposure) was 0.62 ng·h/mL and the Tmax ([7]; male, cynomolgus monkey, 1 mg butorphanol free base equivalents/kg, butorphanol in plasma after oral butorphanol, 1.0 mg butorphanol free base/kg, Average, plasma concentrations below the LLOQ of 0.1 ng/mL) was 0.5 h. For the same compound, the half-life ([7]; male, cynomolgus monkey, plasma, 1 mg butorphanol free base equivalents/kg, butorphanol, oral butorphanol 1.0 mg free base/kg, Average, value after giving prodrug and used for estimating maximal systemic exposure, read-out: t½ (converted)) was 6.1 h, the Cmax ([7]; male, cynomolgus monkey, plasma, po, 1 mg butorphanol free base equivalents/kg, butorphanol in plasma after oral butorphanol, 1.0 mg butorphanol free base/kg, Average, plasma concentrations below the LLOQ of 0.1 ng/mL, read-out: Cmax) was 0.1 ng/mL and the Cmax ([7]; male, cynomolgus monkey, plasma, po, 1 mg butorphanol free base equivalents/kg, butorphanol in plasma after oral butorphanol, 1.0 mg butorphanol free base/kg, single animal, below the LLOQ of 0.1 ng/mL, read-out: Cmax) was less than 0.1 ng/mL. For the same compound, the “T>50%Cmax” value ([8]; Average) was 2.0 h, the AUC ([8]; single animal) was 1.80 ng·h/mL and the Cmax ([8]; single animal) was 0.56 ng/mL. The “T>50%Cmax” value ([8]; single animal) was 1.6 h and 2.4 h, the Tmax ([8]; single animal) was 1.00 h and the t½ ([8]; single animal) was 1.7 h. The AUC ([8]; male, beagle, plasma, po, 0.5 mg/kg, Average, read-out: AUC) was 2.05 ng·h/mL, the Cmax ([8]; male, beagle, plasma, po, 0.5 mg/kg, Average, read-out: Cmax) was 0.73 ng/mL and the Tmax ([8]; male, beagle, plasma, po, 0.5 mg/kg, Average, read-out: Tmax) was 0.75 h. The half-life ([8]; male, beagle, plasma, po, 0.5 mg/kg, Average) was 1.6 h, the AUC ([8]; male, beagle, plasma, po, 0.5 mg/kg, single animal, read-out: AUC) was 2.3 ng·h/mL and the Cmax ([8]; male, beagle, plasma, po, 0.5 mg/kg, single animal, read-out: Cmax) was 0.9 ng/mL. The Tmax ([8]; male, beagle, plasma, po, 0.5 mg/kg, single animal, read-out: Tmax) was 0.5 h and the half-life ([8]; male, beagle, plasma, po, 0.5 mg/kg, single animal) was 1.6 h.
For `COc1ccc2c3c1O[C@H]1[C@@H](O)CC[C@H]4[C@@H](C2)N(C)CC[C@@]341` [dihydrocodeine], the “oral dose converted to dihydromorphine” value [9] is listed as “less than 2%”.
Work on `C=CCN1CC[C@]23c4c5ccc(O)c4O[C@H]2C(=O)CC[C@@]3(O)[C@H]1C5` [naloxone] yielded an AUC (in vivo [10]; Mean) of 22 ng·h/mL, an AUC (in vivo [10]; single animal) of 22 ng·h/mL and a Cmax (in vivo [10]; Mean) of 6.8 ng/mL. For the same compound, the Cmax (in vivo [10]; single animal) was 7.1 ng/mL, the Tmax (in vivo [10]; Mean) was 0.35 h and the Tmax (in vivo [10]; single animal) was 0.25 h. For the same compound, the half-life (in vivo [10]; Mean) was 3.9 h, the half-life (in vivo [10]; single animal) was 3.9 h and the “T>50%Cmax” value (naloxone in plasma after oral naloxone, 10 mg free base equivalents/kg, male rats, Mean) was 2.1 h. For the same compound, the Cmax [13] was 6.3 ng/mL and 7.6 ng/mL and 8.1 ng/mL and 4.9 ng/mL, the “T>50%Cmax” value [13] was 1.2 h and 1.5 h and 1.8 h and 1.3 h and 4.5 h and the Tmax [13] was 0.50 h. For the same compound, the t½ [13] was 3.8 h and the “variability around bioavailability of naloxone” value (rats, oral 10 mg/kg) was “over 10%”.
`CC[C@@H](c1cccc(O)c1)[C@@H](C)CN(C)C` [tapentadol] gave a half-life ([11]; cynomolgus monkey, plasma, po, 3 mg/kg) of 1.2 h, an AUC ([11]; male, cynomolgus monkey, plasma, po, 1 mg free base equivalents/kg) of 5.4 ng·h/mL and a Cmax ([11]; male, cynomolgus monkey, plasma, po, 1 mg free base equivalents/kg, Cmax * (estimated), racemic tapentadol (all four isomers), oral tapentadol scaled up from 1 to 3 mg free base equivalents/kg, monkeys, n = 5, LLOQ taken as Cmax) of 2.4 ng/mL. The AUC ([11]; male, cynomolgus monkey, plasma, po, 1 mg/kg tapentadol free base equivalents/kg) was less than 5.4 ng·h/mL, the “plasma concentrations of tapentadol, each isomer (LLOQ)” value ([11]; oral tapentadol 1 mg/kg, monkeys) was less than 0.4 ng/mL and the “Cmax * (estimated)” value ([11]; racemic tapentadol (all four isomers), oral tapentadol scaled up from 1 to 3 mg free base equivalents/kg, monkeys, n = 5, LLOQ taken as Cmax) was less than 2.4 ng/mL.
